Read-outs that look alike come from different tables or passages of the source.
How the values were obtained:
[1] = Pharmacokinetic analysis of plasma in SD rats; assay type: in vivo; details: female, Sprague-Dawley, rat; for half-life: 14 mg/kg
Procedure: In the pharmacokinetic analysis, a total of 23 female SD rats aged 8 weeks from Zhejiang Academy of Medical Sciences (Hangzhou, China) (permit number: ZJU20240191) were used. A total of 15 rats were randomly divided into the following groups: (i) control group, (ii) TBG096 (14 mg/kg) oral administration group, and (iii) TBG096 (14 mg/kg) intravenous administration group. TBG096 was administered orally (dissolved in soybean oil) or intravenously (dissolved in Milli-Q water containing 2% Tween 80 and 5% ethanol) at 14 mg/kg after 12 h of fasting. Then, the blood from the posterior ocular venous plexus of rats was taken at 5, 15, 30, 60, 90, 120, 180, and 240 min after administration. A total of eight rats were randomly divided into two groups for taking brain samples: (i) control group and (ii) TBG096 (14 mg/kg) oral administration group.
The collected blood was placed in a centrifuge tube (containing 20 µL heparin sodium solution) and centrifuged at 3000 rpm for 10 min to obtain a supernatant (plasma). Brain samples were collected after the oral administration of 14 mg/kg TBG096 and heart perfusion with PBS. Then, 10 µL of 10% formic acid and 10 µL of internal standard (10 ng/µL) were added to 200 µL of plasma (compound 2 was used as internal standard) or 0.2 g of brain sample (compound 4 was used as internal standard) and vortexed for 10 s and then left at −80 °C overnight. Next, 600 µL or 3 mL of extraction solvent (isopropanol) was added to plasma or brain samples, vortexed for 5 min, left at −30 °C for 2 h, and then centrifuged at 12,000 rpm for 15 min. Next, the upper organic phase was transferred to another tube, centrifuged, and concentrated to dryness. The residue was dissolved in 100 µL of mobile phase, vortexed for 0.5 min, and centrifuged at 12,000 rpm for 3 min, and the supernatant was then prepared for HPLC analysis (Supersil Phenyl 5 µm (4.6 × 200 mm), elution with MeCN/H2O containing 0.1% formic acid (plasma samples: 57% MeCN/H2O, brain samples: 56% MeCN/H2O) for 30 min, flow rate: 1 mL/min, sample size: 20 µL, detected at 284 nm) and HR ESI-TOF-MS analysis.

[2] = test system: Hsc70, LAMP2A, APP, PKM2, and HK2 proteins; assay: Western blot of CMA proteins in PC12 cells (inhibitor experiment); assay type: cell-based; details: TBG096 1 µM, 4 h, vs control
Procedure: In the inhibitor experiment of NGF-mimic activity, approximately 5 × 10^4 PC12 cells were seeded into each well of a 24-well plate and incubated for 24 h. After that, the medium in each well was replaced with 500 μL of serum-free DMEM or the serum-free DMEM containing VER155008, the inhibitor of Hsc70 protein, incubated in a CO2 incubator for 30 min. Subsequently, 500 μL of serum-free DMEM containing different samples was added and cultured, respectively. The PC12 cells with neurite outgrowth were recorded after 48 h. For the Western blot analysis, the experiment included five groups, namely the control (C) group, the NGF (40 ng/mL) group, the TBG096 (1 µM) group, the VER155008 (3 µM) group, and the VER155008 (3 µM) + TBG096 (1 µM) group. Afterwards, approximately 2 × 10^6 cells per dish were seeded into ten 6 cm Petri dishes with 5 mL of DMEM medium and incubated for 24 h. After giving different treatments with samples, the cells continued to culture for 4 h. Protein extraction was conducted to prepare for the subsequent Western blot analysis.
Approximately 50 mg of cerebral cortex from brain tissues was homogenized in RIPA lysis buffer containing 1% protease inhibitor and 1% phosphatase inhibitor. Then, the sample was centrifuged at 12,000 rpm at 4 °C for 10 min, and the supernatant was transferred to a new tube. Protein concentrations were determined using the BCA kit, and 30 µg of protein from each sample was denatured by heating in water at 100 °C for 10 min. Subsequently, approximately 30 µg of protein from each sample was loaded into each well. After conducting gel electrophoresis at 80 V for 15 min and then at 120 V for 60 min, the proteins were transferred to the polyvinylidene fluoride (PVDF) membrane for 90 min. Then, the PVDF membrane was blocked with 5% skimmed milk at room temperature for 60 min. The membrane was incubated with a diluted primary antibody at 4 °C overnight. After washing the membrane three times with TBST buffer (1× TBS buffer containing 0.05% (v/v) tween 20), it was incubated with the secondary antibody for 1 h at room temperature. Finally, the strip was developed using chemiluminescence ECL reagent, and the blot density was quantified with ImageJ (National Institutes of Health, Bethesda, MD, USA).

Compound O=C(SCCCCCCSCCCC(F)(F)F)c1cccc(O)c1O [TBG096] has a bioavailability ([1]; 14 mg/kg oral vs i.v., rats, read-out: absolute (oral) bioavailability) of 36%, a half-life ([1]; iv, i.v. 14 mg/kg, rats, read-out: T1/2z) of 44.4 min and an AUC(0-inf) ([1]; iv, i.v. 14 mg/kg, rats) of 2520 ng·h/mL. It also gave an AUC(0-t) ([1]; iv, i.v. 14 mg/kg, rats) of 2470 ng·h/mL, a Cmax ([1]; iv, i.v. 14 mg/kg, rats) of 4700 ng/mL and a Tmax ([1]; iv, i.v. 14 mg/kg, rats) of 5 min. For the same compound, the AUC(0-inf) ([1]; oral (i.g.) 14 mg/kg, rats) was 905 ng·h/mL, the AUC(0-t) ([1]; oral (i.g.) 14 mg/kg, rats) was 707 ng·h/mL and the Cmax ([1]; oral (i.g.) 14 mg/kg, rats) was 700 ng/mL. It also gave a Tmax ([1]; oral (i.g.) 14 mg/kg, rats) of 15 min, a half-life ([1]; po, oral (i.g.) 14 mg/kg, rats, read-out: T1/2z (oral elimination half-life)) of 111 min and a half-life ([1]; po, oral, as restated in Discussion, read-out: half-life (converted)) of 111 min. The HK2 protein expression [2] was “significantly decreased”, the APP protein expression ([2]; VER155008 3 µM) was “significantly decreased” and the Hsc70 protein level ([2]; VER155008 3 µM) was “significantly increased”. The LAMP2A protein level ([2]; VER155008 3 µM) was “significantly increased” and the PKM2 protein expression ([2]; VER155008 3 µM) was “significantly decreased”.
